Among the data in patent publication US20250346599A1, “TRICYCLIC PHTHALAZINONE PARP INHIBITORS AND METHODS OF USE” (Valo Health, Inc., priority 2022, published 2025) are IC50 values, retold here.

Where “and” joins values, the source holds several entries; their conditions need not be identical. Equal entries are not always repeated.

By IC50 is commonly meant the concentration at which inhibition is half-maximal. Low values mean greater potency in that assay, high ones weaker potency in that assay.

This test deals with PARP1 enzyme (Homo sapiens (Human), UniProt P09874). Description: PARP Mass Spectroscopy Assay (PARP1 enzymatic assay, nicotinamide detection). In kind it is biochemical. To be noted: 5 nM PARP1, 5 uM β-NAD, 60 min at RT, NAM by mass spectrometry. The source says: Materials and Reagents: The PARP1 enzyme was purchased from BPS Bioscience (cat #80501). Tris-HCl, pH 8.0 was purchased from Corning (cat #46-031-CM). Magnesium chloride was purchased from Thermo Fisher Scientific (previously Honeywell Fluka, cat #63020-1L). All other assay components, activated DNA (cat #D4522), core histones (cat #SRP6590), β-Nicotinamide adenine dinucleotide (β-NAD—cat #N8285), 3ABA PARP1 small molecule inhibitor (from the PARP1 Enzyme Activity Assay kit, cat #17-10149), Sodium Chloride (NaCl, cat #56546-1L), Triton X-100 (cat #93443), Dithiothreitol (DTT, cat #43816-250 ML) were all purchased from Millipore Sigma.
Assay Buffer: The assay buffer includes the following reagents: 50 mM Tris-HCl pH 8.0, 50 mM NaCl, 10 mM, MgCl2, 0.01% Triton X-100, and 1 mM DTT.
PARP1 enzymatic assays were performed in 384-well plates in a total volume of 20 μL in the assay buffer. For concentration response curves, compounds were serially diluted 3-fold from 2 mM highest concentration […] to generate a 10-point curve, and 125 nL was transferred to the assay plate using the Echo acoustic dispenser for a final concentration range of 26.6 μM to […] in 10 μL reaction. Five microliters of 10 nM PARP1 enzyme and 100 nM core histones (2×) mix were added to the assay plates and pre-incubated for 30 mins at room temperature (RT). The reaction was initiated by the addition of a 5 μL of 10 uM β-NAD plus 0.02 mg/mL activated DNA (2×) mix. The reaction is incubated for 60 min at RT. The final concentration of the PARP1 enzyme and substrate concentrations were 5 nM and 5 uM, respectively. The positive control (high signal) and negative control (low signal) wells had 125 nL of DMSO in place of compounds. After the incubation is complete, the reaction is stopped by the addition of 10 μL of 10 uM of the 3ABA PARP1 inhibitor, incubated for 5 min at RT, and placed in the −80 C freezer for shipment to the Valo Health site in Branford Connecticut where mass spectrometry will be used to directly detect quantities of nicotinamide (NAM).
The percent inhibition of enzyme activity was calculated according to the following equation: […]
The values of Ssample, Shigh, and Slow in the equation refer to the NAM concentration detected in the assay wells, high control wells, and low control wells, respectively. To determine inhibitor IC50 values, % inhibition of the CRCs (concentration response curves) was fitted to the standard single-site four-parameter logistic equation.

Chain of PARP1 enzyme (P09874 whole entry): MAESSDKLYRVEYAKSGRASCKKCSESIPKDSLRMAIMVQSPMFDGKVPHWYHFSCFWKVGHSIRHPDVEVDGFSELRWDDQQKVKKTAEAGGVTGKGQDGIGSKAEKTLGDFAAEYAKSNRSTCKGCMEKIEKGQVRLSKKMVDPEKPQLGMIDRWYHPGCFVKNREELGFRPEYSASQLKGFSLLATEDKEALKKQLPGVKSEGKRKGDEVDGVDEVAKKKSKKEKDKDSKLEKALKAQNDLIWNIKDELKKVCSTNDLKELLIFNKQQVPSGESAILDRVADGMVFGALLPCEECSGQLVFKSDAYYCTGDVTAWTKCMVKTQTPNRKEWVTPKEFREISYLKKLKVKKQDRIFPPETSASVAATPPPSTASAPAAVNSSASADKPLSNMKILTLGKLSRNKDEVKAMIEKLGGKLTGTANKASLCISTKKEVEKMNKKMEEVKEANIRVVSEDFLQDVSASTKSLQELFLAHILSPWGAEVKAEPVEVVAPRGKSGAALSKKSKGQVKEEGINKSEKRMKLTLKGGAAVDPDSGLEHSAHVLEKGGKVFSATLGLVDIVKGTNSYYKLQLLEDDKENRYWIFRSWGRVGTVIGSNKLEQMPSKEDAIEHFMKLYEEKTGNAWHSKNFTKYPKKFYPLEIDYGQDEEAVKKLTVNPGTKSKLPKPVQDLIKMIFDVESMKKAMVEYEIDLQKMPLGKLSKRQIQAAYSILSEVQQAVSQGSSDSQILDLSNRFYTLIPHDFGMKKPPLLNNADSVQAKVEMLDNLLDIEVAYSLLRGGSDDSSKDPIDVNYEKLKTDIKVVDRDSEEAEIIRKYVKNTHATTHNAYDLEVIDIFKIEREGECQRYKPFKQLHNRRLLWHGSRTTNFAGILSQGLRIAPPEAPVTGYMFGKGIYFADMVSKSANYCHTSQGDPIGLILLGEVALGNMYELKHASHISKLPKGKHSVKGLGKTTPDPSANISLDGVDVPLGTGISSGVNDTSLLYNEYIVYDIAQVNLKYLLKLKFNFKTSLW

`N#Cc1ccc([C@H]2c3n[nH]c(=O)c4cc(F)cc(c34)N[C@@H]2C2CCN(C3CCC(F)(F)CC3)CC2)c(F)c1` [Compound 0276A] yielded a 50% inhibitory concentration (IC50) of 0.281 µM.

As to `CN1CCCC[C@@H]1[C@H]1CNc2cc(F)cc3c(=O)[nH]nc1c23` [Compound 0192B], half-maximal inhibition (IC50) required 0.022 µM.

On to `O=c1[nH]nc2c3c(cc(F)cc13)N[C@@H](CF)[C@@H]2c1ccc(Cl)cc1F` [Compound 0252A], for which half-maximal inhibition (IC50) was put at 0.057 µM. This IC50 lies about 2.6-fold higher than the previous one.

`CN1CCC[C@H]([C@@H]2CNc3cc(F)cc4c(=O)[nH]nc2c34)C1` [Compound 0191C] registered an IC50 of 0.05 µM.

`CC(C)(C)C[C@H]1Nc2cc(F)cc3c(=O)[nH]nc(c23)[C@@H]1c1c(F)cc(F)cc1F` [Compound 0219A] returned a half-inhibitory concentration (IC50) of 0.512 µM.

For `CC(C)[C@H]1Nc2cc(F)cc3c(=O)[nH]nc(c23)[C@@H]1c1c(F)cc(F)cc1F` [Compound 0221A], the IC50 came to 0.002 µM.

The molecule `CN1CCCC[C@@H]1[C@@H]1CNc2cc(F)cc3c(=O)[nH]nc1c23` [Compound 0192A] yielded a 50% inhibitory concentration (IC50) of 0.027 µM. This IC50 lies about 14-fold higher than the previous one.

As for `CC[C@H]1Nc2cc(F)cc3c(=O)[nH]nc(c23)[C@@H]1c1ccccc1Cl` [Compound 0206B, (11R,12R)-12-(2-chlorophenyl)-11-ethyl-7-fluoro-2,3,10-triazatricyclo[7.3.1.0^{5,13}]trideca-1,5(13),6,8-tetraen-4-one], the half-inhibitory concentration (IC50) stood at 0.006 µM.

Consider `O=c1[nH]nc2c3c(cc(F)cc13)NC(C1CCC(F)(F)CC1)C2c1c(F)cc(F)cc1F` (stereo not drawn) [Compound 0212A], for which the 50% inhibitory concentration (IC50) was 0.015 µM and 0.02 µM.

`N#Cc1ccc([C@@H]2CNc3cc(F)cc4c(=O)[nH]nc2c34)c(F)c1` [Compound 0187A] registered an IC50 of 0.009 µM.

The molecule `C[C@H]1Nc2cc(F)cc3c(=O)[nH]nc(c23)[C@@H]1[C@@H]1CCCN(C)C1` [Compound 0198D] had an IC50 of 0.042 µM.

In the case of `C[C@@H]1Nc2cc(F)cc3c(=O)[nH]nc(c23)[C@H]1c1ccccc1Cl` [Compound 0172B, (8S,9S)-9-(2-chlorophenyl)-5-fluoro-8-methyl-2,7,8,9-tetrahydro-3H-pyrido[4,3,2-de]phthalazin-3-one], the concentration for half-maximal inhibition (IC50) is 0.018 µM. Compared with the last molecule, the IC50 is about 2.3-fold lower.

Molecule `CC1Nc2cc(F)cc3c(=O)[nH]nc(c23)C1c1ccc(Cl)c(F)c1` (stereo not drawn) [Compound 0195-5, 9-(4-chloro-3-fluorophenyl)-5-fluoro-8-methyl-2,7,8,9-tetrahydro-3H-pyrido[4,3,2-de]phthalazin-3-one] returned a 50% inhibitory concentration (IC50) of 0.018 µM. In other words, the double-digit nanomolar range.

Take `COCCN1CCC(C2Nc3cc(F)cc4c(=O)[nH]nc(c34)C2c2ccc(F)cc2F)C1` (stereo not drawn) [Compound 0111-6, 12-(2,4-difluorophenyl)-7-fluoro-11-[1-(2-methoxyethyl)pyrrolidin-3-yl]-2,3,10-triazatricyclo[7.3.1.0^{5,13}]trideca-1,5(13),6,8-tetraen-4-one]: the 50% inhibitory concentration (IC50) was 0.164 µM. This IC50 lies about 9.1-fold higher than the previous one.

With `O=c1[nH]nc2c3c(cc(F)cc13)N[C@@H](c1c(F)cc(F)cc1F)[C@@H]2C1CCNCC1` [Compound 0098B], the 50% inhibitory concentration (IC50) worked out at 0.03 µM.

As to `C[C@H]1Nc2cc(F)cc3c(=O)[nH]nc(c23)[C@H]1[C@@H]1CCCN(C)C1` [Compound 0198B], the half-maximal inhibitory concentration (IC50) was determined as 0.039 µM. This IC50 and that of the molecule before are within 1.5-fold of each other.

Regarding `C[C@H]1Nc2cc(F)cc3c(=O)[nH]nc(c23)[C@@H]1[C@@H]1CCCCN1C` [Compound 0199B], it took 0.118 µM to reach half-maximal inhibition (IC50).

For the molecule `CN1CCC[C@H]([C@H]2CNc3cc(F)cc4c(=O)[nH]nc2c34)C1` [Compound 0191-8], half-maximal inhibition (IC50) was put at 0.046 µM. This IC50 lies about 2.6-fold lower than the previous one.

`O=c1[nH]nc2c3c(cc(F)cc13)NC(COCc1ccccc1)C2c1ccccc1Cl` (stereo not drawn) [Compound 0257-4] gave an IC50 of 0.593 µM.

As for `C[C@@H]1Nc2cc(F)cc3c(=O)[nH]nc(c23)[C@H]1[C@@H]1CCCCN1C` [Compound 0199D], 0.025 µM corresponded to half-maximal inhibition (IC50).

In the case of `O=c1[nH]nc2c3c(cc(F)cc13)N[C@@H](C1CCN(C3CCC(F)(F)CC3)CC1)[C@@H]2c1ccc(F)cc1F` [Compound 0271B], the IC50 amounted to 0.007 µM.

As for `C[C@H]1Nc2cc(F)cc3c(=O)[nH]nc(c23)[C@@H]1[C@H]1CCCCN1C` [Compound 0199A], the IC50 worked out at 0.065 µM.

With `C[C@H]1Nc2cc(F)cc3c(=O)[nH]nc(c23)[C@@H]1C1CCN(C)CC1` [Compound 0197A], the IC50 was 0.447 µM.

In turn, `CC(C)[C@H]1Nc2cc(F)cc3c(=O)[nH]nc(c23)[C@@H]1c1ccccc1Cl` [Compound 0222A] came in with a half-maximal inhibitory concentration (IC50) of 0.023 µM.

For `N#Cc1ccc([C@@H]2c3n[nH]c(=O)c4cc(F)cc(c34)N[C@H]2C2CCC(F)(F)CC2)cc1F` [Compound 0214B], the IC50 came out at 0.02 µM. This IC50 and that of the molecule before are within 1.5-fold of each other.

The molecule `O=c1[nH]nc2c3c(cc(F)cc13)NC(C1CCN(C3CCC(F)(F)CC3)CC1)C2c1ccc(F)cc1F` (stereo not drawn) [Compound 0271-6] had an IC50 of 0.004 µM.

On to `N#Cc1ccc(C2c3n[nH]c(=O)c4cc(F)cc(c34)NC2c2c(F)cc(F)cc2F)cc1F` (stereo not drawn) [0092A; 0092B, 2-fluoro-4-(5-fluoro-3-oxo-8-(2,4,6-trifluorophenyl)-2,7,8,9-tetrahydro-3H-pyrido[4,3,2-de]phthalazin-9-yl)benzonitrile], for which the IC50 was 0.013 µM. Compared with the last molecule, the IC50 is about 3.2-fold higher.

`O=c1[nH]nc2c3c(cc(F)cc13)NC(COCc1ccccc1)C2c1ccc(F)cc1F` (stereo not drawn) [Compound 0267-4] yielded a half-inhibitory concentration (IC50) of 0.013 µM.

For `CN1CCC([C@H]2Nc3cc(F)cc4c(=O)[nH]nc(c34)[C@@H]2c2ccc(F)cc2F)CC1` [Compound 0110A, (8R,9R)-9-(2,4-difluorophenyl)-5-fluoro-8-(1-methylpiperidin-4-yl)-2,7,8,9-tetrahydro-3H-pyrido[4,3,2-de]phthalazin-3-one], the IC50 turned out to be 1.4 µM.

Molecule `CC1Nc2cc(F)cc3c(=O)[nH]nc(c23)C1C1CCCN(C)C1` (stereo not drawn) [Compound 0198-5] showed an IC50 of 0.244 µM.

Molecule `O=c1[nH]nc2c3c(cc(F)cc13)N[C@H](C1(F)CC1)[C@H]2c1ccccc1Cl` [Compound 0260A] displayed an IC50 of 0.002 µM.

Turning to `N#Cc1ccc([C@@H]2CNc3cc(F)cc4c(=O)[nH]nc2c34)cc1F` [Compound 0186A], half-maximal inhibition (IC50) was put at 0.243 µM.

Take `Cn1ncnc1[C@H]1c2n[nH]c(=O)c3cc(F)cc(c23)N[C@@H]1C1CCN(C2CCC(F)(F)CC2)CC1` [Compound 0266B]: the half-maximal inhibitory concentration (IC50) turned out to be 5.78 µM.

Molecule `O=c1[nH]nc2c3c(cc(F)cc13)NC(C1CCNC1)C2c1ccc(F)cc1F` (stereo not drawn) [Compound 0173A, 12-(2,4-difluorophenyl)-7-fluoro-11-(pyrrolidin-3-yl)-2,3,10-triazatricyclo[7.3.1.0^{5,13}]trideca-1,5(13),6,8-tetraen-4-one] yielded an IC50 of 0.07 µM. This IC50 lies about 83-fold lower than the previous one.

Regarding `O=c1[nH]nc2c3c(cc(F)cc13)N[C@@H]([C@H]1CCOC1)[C@@H]2c1ccccc1Cl` [Compound 0121C], the IC50 came out at 0.854 µM.

As for `N#Cc1ccc([C@H]2c3n[nH]c(=O)c4cc(F)cc(c34)N[C@@H]2C2CCC(F)(F)CC2)cc1F` [Compound 0214A], it took 0.108 µM to reach half-maximal inhibition (IC50). This IC50 is about 7.9-fold lower than that of the molecule before.

In turn, `COCCN1CCC(C2Nc3cc(F)cc4c(=O)[nH]nc(c34)C2c2ccccc2Cl)C1` (stereo not drawn) [Compound 0117-8, 12-(2-chlorophenyl)-7-fluoro-11-[1-(2-methoxyethyl)pyrrolidin-3-yl]-2,3,10-triazatricyclo[7.3.1.0^{5,13}]trideca-1,5(13),6,8-tetraen-4-one] gave a half-maximal inhibitory concentration (IC50) of 0.566 µM.

`CC1Nc2cc(F)cc3c(=O)[nH]nc(c23)C1c1ccc(Cl)cc1F` (stereo not drawn) [Compound 0196-5] gave a half-inhibitory concentration (IC50) of 0.009 µM.

Regarding `O=c1[nH]nc2c3c(cc(F)cc13)NC(C1CCCN1)C2c1ccccc1Cl` (stereo not drawn) [Compound 0181-6], 1.2 µM corresponded to half-maximal inhibition (IC50).
